Laboratory results: patent US3995059A, “Pharmaceutical compositions containing fatty acid amide derivatives” (Sumitomo Chemical Company, Limited, priority 1966, dated 1976)

Tests used:
[1] = system: total cholesterol value in the blood serum; experiment: Total cholesterol in blood serum of mice fed a diet enriched with cholesterol and bile acids (Table 1); assay type: in vivo; details: 0.2% in diet, oral, 8 to 12 days
Method: The effectiveness of the compounds was tested by using mice fed on a specific diet which was enriched with cholesterol and bile acids. […] The amide compound as well was mixed with the specific diet in an amount of 0.2%, and continuously administered orally for 8 to 12 days. Then the total cholesterol value in the blood serum of the animals was evaluated.

liver cholesterol = experiment: Liver cholesterol (deposition of cholesterol and fat in the liver) of mice fed a cholesterol-rich diet (Table 1); assay type: in vivo; details: 0.2% in diet, oral, 8 to 12 days
[2] = experiment [VIII], control 2652
[3] = experiment [III], control not given

CCCCCCCC/C=C\CCCCCCCC(=O)NC(CC)c1cccc([N+](=O)[O-])c1 (racemic)
Serum cholesterol ([1]; experiment [XI], control 595): 362 mg % | Liver cholesterol (liver cholesterol; experiment [XI], control 3451): 1342 mg/100 g.

CCCCC/C=C\C/C=C\CCCCCCCC(=O)NC(CC)c1ccc(C)cc1 (stereo not shown) [drawing 24]
Serum cholesterol ([1]; experiment [IV], control 595): 321 mg % | Liver cholesterol (liver cholesterol; experiment [IV], control 3145): 908 mg/100 g.

CCCCC/C=C\C/C=C\CCCCCCCC(=O)NC(C)c1ccccc1 (single isomer, unassigned; (+)) [(+) N-(α-Methylbenzyl)-linoleamide]
Serum cholesterol ([1]; experiment [I], control 546): 267 mg % | Liver cholesterol (liver cholesterol; experiment [I], control 3585): 764 mg/100 g.

CCCCC/C=C\C/C=C\CCCCCCCC(=O)NC(CC)c1ccccc1 (stereo not shown) [drawing 14]
Serum cholesterol ([1]; experiment [II], control 521): 302 mg % | Liver cholesterol (liver cholesterol; experiment [II], control 3308): 1042 mg/100 g.

CC/C=C\C/C=C\C/C=C\CCCCCCCC(=O)NC(Cc1ccccc1)c1ccccc1 (stereo not shown) [drawing 100]
Serum cholesterol ([1]; experiment [XI], control 595): 275 mg % | Liver cholesterol (liver cholesterol; experiment [XI], control 3451): 1632 mg/100 g.

CCCCC/C=C\C/C=C\CCCCCCCC(=O)NC(C)c1ccc([N+](=O)[O-])cc1 (stereo not shown) [drawing 73]
Serum cholesterol ([1]; experiment [XI], control 595): 275 mg % | Liver cholesterol (liver cholesterol; experiment [XI], control 3451): 1011 mg/100 g.

CCCCCCCC/C=C\CCCCCCCC(=O)NC(Cc1ccccc1)c1ccccc1 (stereo not drawn) [d- drawing 33]
Serum cholesterol ([1]; experiment [V], control 372): 222 mg % | Liver cholesterol (liver cholesterol; experiment [V], control 2640): 729 mg/100 g.

CCCCC/C=C\C/C=C\CCCCCCCC(=O)NC(CC)c1ccc([N+](=O)[O-])cc1 (stereo not shown)
Serum cholesterol ([1]; experiment [VIII], control 472): 331 mg % | Liver cholesterol (liver cholesterol; [2]): 980 mg/100 g.

CCCCCCCC/C=C\CCCCCCCC(=O)NC12CC3CC(CC(C3)C1)C2
Serum cholesterol ([1]; experiment [IX], control 336): 294 mg % | Liver cholesterol (liver cholesterol; experiment [IX], control 2200): 1120 mg/100 g.

CC/C=C\C/C=C\C/C=C\CCCCCCCC(=O)NC(Cc1ccccc1)c1ccccc1 (stereo not shown) [drawing 32]
Serum cholesterol ([1]; experiment [V], control 372): 238 mg % | Liver cholesterol (liver cholesterol; experiment [V], control 2640): 729 mg/100 g.

CC(C)CCCCCCCCCCCCCCC(=O)NC(Cc1ccccc1)c1ccccc1 (stereo not drawn) [d- iso-C17 H35 CO]
Serum cholesterol ([1]; experiment [V], control 372): 209 mg % | Liver cholesterol (liver cholesterol; experiment [V], control 2640): 561 mg/100 g.

CCCCC/C=C\C/C=C\CCCCCCCC(=O)NC(C)c1ccc(C)cc1 (stereo not shown) [drawing 22]
Serum cholesterol ([1]; experiment [III], control 471): 237 mg % | Liver cholesterol (liver cholesterol; [3]): 1047 mg/100 g.

CCCCCCCC/C=C\CCCCCCCC(=O)NC(C)c1ccc(CC)cc1 (stereo not shown) [drawing 63]
Serum cholesterol ([1]; experiment [X], control 554): 398 mg % | Liver cholesterol (liver cholesterol; experiment [X], control 3293): 1210 mg/100 g.

CC/C=C\C/C=C\C/C=C\CCCCCCCC(=O)NC(C)c1ccc(C)cc1 (stereo not shown) [drawing 66]
Serum cholesterol ([1]; experiment [X], control 554): 249 mg % | Liver cholesterol (liver cholesterol; experiment [X], control 3293): 1000 mg/100 g.

CCCCCCCC/C=C\CCCCCCCC(=O)NC(C)c1ccccc1 (stereo not shown) [drawing 8]
Serum cholesterol ([1]; experiment [II], control 521): 295 mg % | Liver cholesterol (liver cholesterol; experiment [II], control 3308): 1330 mg/100 g.

CC(C)CCCCCCCCCCCCCCC(=O)NC(C)c1ccccc1 (single isomer, unassigned; (+)) [(+) N-(α-Methylbenzyl)-isostearamide]
Serum cholesterol ([1]; experiment [I], control 546): 251 mg % | Liver cholesterol (liver cholesterol; experiment [I], control 3585): 761 mg/100 g.

CCCCCCCC/C=C\CCCCCCCC(=O)NC(C)c1ccc(Br)cc1 (stereo not shown) [drawing 79]
Serum cholesterol ([1]; experiment [XI], control 595): 277 mg % | Liver cholesterol (liver cholesterol; experiment [XI], control 3451): 1009 mg/100 g.

CC/C=C\C/C=C\C/C=C\CCCCCCCC(=O)NC(Cc1ccccc1)c1ccccc1 (stereo not shown) [drawing 99]
Serum cholesterol ([1]; experiment [XI], control 595): 240 mg % | Liver cholesterol (liver cholesterol; experiment [XI], control 3451): 623 mg/100 g.

CCCCCCCC/C=C\CCCCCCCC(=O)NC(C)c1ccc(Br)cc1 (stereo not shown) [drawing 78]
Serum cholesterol ([1]; experiment [XI], control 595): 253 mg % | Liver cholesterol (liver cholesterol; experiment [XI], control 3451): 921 mg/100 g.

CCCCC/C=C\C/C=C\CCCCCCCC(=O)NC(CC)c1ccc(C)cc1 (stereo not shown) [drawing 21]
Serum cholesterol ([1]; experiment [III], control 471): 242 mg % | Liver cholesterol (liver cholesterol; [3]): 1065 mg/100 g.

CC/C=C\C/C=C\C/C=C\CCCCCCCC(=O)NC(C)c1ccccc1 (single isomer, unassigned; (+)) [(+) N-(α-Methylbenzyl)-linolenamide]
Serum cholesterol ([1]; experiment [I], control 546): 269 mg % | Liver cholesterol (liver cholesterol; experiment [I], control 3585): 784 mg/100 g.

CCCCC/C=C\C/C=C\CCCCCCCC(=O)NC(C)c1ccc([N+](=O)[O-])cc1 (stereo not shown) [drawing 74]
Serum cholesterol ([1]; experiment [XI], control 595): 315 mg % | Liver cholesterol (liver cholesterol; experiment [XI], control 3451): 1098 mg/100 g.

CCCCC/C=C\C/C=C\CCCCCCCC(=O)NC(C)c1ccc(Cl)c(Cl)c1 (stereo not shown) [drawing 26]
Serum cholesterol ([1]; experiment [IV], control 595): 251 mg % | Liver cholesterol (liver cholesterol; experiment [IV], control 3145): 1000 mg/100 g.

CC/C=C\C/C=C\C/C=C\CCCCCCCC(=O)NC(C)c1ccccc1C (stereo not shown) [drawing 29]
Serum cholesterol ([1]; experiment [IV], control 595): 222 mg % | Liver cholesterol (liver cholesterol; experiment [IV], control 3145): 913 mg/100 g.

CCCCC/C=C\C/C=C\CCCCCCCC(=O)NC(C)c1ccc([N+](=O)[O-])cc1 (stereo not shown) [drawing 44]
Serum cholesterol ([1]; experiment [VIII], control 472): 340 mg % | Liver cholesterol (liver cholesterol; [2]): 1603 mg/100 g.

CC/C=C\C/C=C\C/C=C\CCCCCCCC(=O)NC(C)c1cccc(Cl)c1 (stereo not shown) [drawing 95]
Serum cholesterol ([1]; experiment [XI], control 595): 275 mg % | Liver cholesterol (liver cholesterol; experiment [XI], control 3451): 995 mg/100 g.

CC(C)CCCCCCCCCCCCCCC(=O)NC(Cc1ccccc1)c1ccccc1 (stereo not shown) [iso-C17 H35 CO]
Serum cholesterol ([1]; experiment [V], control 372): 221 mg % | Liver cholesterol (liver cholesterol; experiment [V], control 2640): 609 mg/100 g.

CCCCCCCC/C=C\CCCCCCCC(=O)NC(C)c1ccccc1 (single isomer, unassigned; (+)) [(+) N-(α-Methylbenzyl)-oleamide]
Serum cholesterol ([1]; experiment [I], control 546): 288 mg % | Liver cholesterol (liver cholesterol; experiment [I], control 3585): 797 mg/100 g.

CCCCCCCC/C=C\CCCCCCCC(=O)NC(CC)c1cccc([N+](=O)[O-])c1 (stereo not shown) [drawing 81]
Serum cholesterol ([1]; experiment [XI], control 595): 289 mg % | Liver cholesterol (liver cholesterol; experiment [XI], control 3451): 906 mg/100 g.

CC/C=C\C/C=C\C/C=C\CCCCCCCC(=O)NC(C)c1cccc(Cl)c1 (stereo not shown) [drawing 96]
Serum cholesterol ([1]; experiment [XI], control 595): 300 mg % | Liver cholesterol (liver cholesterol; experiment [XI], control 3451): 1029 mg/100 g.

CCCCC/C=C\C/C=C\CCCCCCCC(=O)NC(C)c1ccccc1[N+](=O)[O-] (stereo not shown)
Serum cholesterol ([1]; experiment [VIII], control 472): 299 mg % | Liver cholesterol (liver cholesterol; [2]): 1003 mg/100 g.

CCCCCCCC/C=C\CCCCCCCC(=O)NC(C)c1ccc(OC)cc1 (stereo not shown) [drawing 85]
Serum cholesterol ([1]; experiment [XI], control 595): 318 mg % | Liver cholesterol (liver cholesterol; experiment [XI], control 3451): 1115 mg/100 g.

CCCCCCCCCCCCCCCC(=O)NC(C)c1ccccc1 (stereo not shown) [drawing 12]
Serum cholesterol ([1]; experiment [II], control 521): 314 mg % | Liver cholesterol (liver cholesterol; experiment [II], control 3308): 1160 mg/100 g.

CCCCCCCC/C=C\CCCCCCCC(=O)NC(C)c1ccc(Br)cc1 (racemic)
Serum cholesterol ([1]; experiment [XI], control 595): 299 mg % | Liver cholesterol (liver cholesterol; experiment [XI], control 3451): 1039 mg/100 g.

CCCCC/C=C\C/C=C\CCCCCCCC(=O)NC(C)c1ccc(Cl)cc1 (stereo not shown) [drawing 72]
Serum cholesterol ([1]; experiment [XI], control 595): 230 mg % | Liver cholesterol (liver cholesterol; experiment [XI], control 3451): 845 mg/100 g.

CC/C=C\C/C=C\C/C=C\CCCCCCCC(=O)NC(C)c1ccccc1 (single isomer, unassigned; (-)) [(-) (α-Methylbenzyl)-linolenamide]
Serum cholesterol ([1]; experiment [II], control 521): 253 mg % | Liver cholesterol (liver cholesterol; experiment [II], control 3308): 767 mg/100 g.

CCCCC/C=C\C/C=C\CCCCCCCC(=O)NC12CC3CC(CC(C3)C1)C2 [drawing 53]
Serum cholesterol ([1]; experiment [IX], control 336): 288 mg % | Liver cholesterol (liver cholesterol; experiment [IX], control 2200): 721 mg/100 g.

CC/C=C\C/C=C\C/C=C\CCCCCCCC(=O)NC(CC)c1ccc(OC)cc1 (stereo not shown) [drawing 102]
Serum cholesterol ([1]; experiment [XI], control 595): 280 mg % | Liver cholesterol (liver cholesterol; experiment [XI], control 3451): 870 mg/100 g.

CCCCC/C=C\C/C=C\CCCCCCCC(=O)NC(C)c1ccc(Br)cc1 (stereo not shown)
Serum cholesterol ([1]; experiment [III], control 471): 322 mg % | Liver cholesterol (liver cholesterol; [3]): 1341 mg/100 g.

CC/C=C\C/C=C\C/C=C\CCCCCCCC(=O)NC12CC3CC(CC(C3)C1)C2
Serum cholesterol ([1]; experiment [IX], control 336): 279 mg % | Liver cholesterol (liver cholesterol; experiment [IX], control 2200): 750 mg/100 g.

CCCCCCCC/C=C\CCCCCCCC(=O)NC(C)c1ccc(CC)cc1 (stereo not shown) [drawing 64]
Serum cholesterol ([1]; experiment [X], control 554): 254 mg % | Liver cholesterol (liver cholesterol; experiment [X], control 3293): 841 mg/100 g.

CCCCCCCC/C=C\CCCCCCCC(=O)NC(C)c1ccc(OC)cc1 (racemic)
Serum cholesterol ([1]; experiment [XI], control 595): 382 mg % | Liver cholesterol (liver cholesterol; experiment [XI], control 3451): 1210 mg/100 g.

CC/C=C\C/C=C\C/C=C\CCCCCCCC(=O)NC(C)c1ccc(C)cc1 (stereo not shown) [drawing 67]
Serum cholesterol ([1]; experiment [X], control 554): 295 mg % | Liver cholesterol (liver cholesterol; experiment [X], control 3293): 1015 mg/100 g.

CC/C=C\C/C=C\C/C=C\CCCCCCCC(=O)NC(CC)c1ccc([N+](=O)[O-])cc1 (stereo not shown) [drawing 98]
Serum cholesterol ([1]; experiment [XI], control 595): 365 mg % | Liver cholesterol (liver cholesterol; experiment [XI], control 3451): 1325 mg/100 g.
